Test results: ChEMBL document CHEMBL5143687, “Design, synthesis and biological evaluation of hydrogen sulfide-releasing isochroman-4-one derivatives as new antihypertensive agent candidates” (Bioorg Med Chem, 2022); call rule not given here

Tests used:
Aortic ring [1] = assay: Vasorelaxant activity in Sprague-Dawley rat aortic rings assessed as reduction in noradrenaline-induced contractions at 10 uM relative to control; format: functional, Thoracic aorta; design: scale not given: the % may be the effect or the level left
Aortic ring [2] = assay: Vasorelaxant activity in Sprague-Dawley rat aortic rings assessed as reduction in noradrenaline-induced contractions at 100 uM relative to control; format: functional, Thoracic aorta; design: scale not given: the % may be the effect or the level left
Aortic ring [3] = assay: Vasorelaxant activity in Sprague-Dawley rat aortic rings assessed as reduction in noradrenaline-induced contractions; format: functional, tissue-based; conditions: Thoracic aorta, DDE = dose-dependent effect
[4] = Prodrug conversion in sodium phosphate buffer assessed as H2S release in presence of L-cysteine by UV-Vis spectrophotometry; format: ADME
CHO = assay: Cytotoxicity against CHO cells assessed as cell viability at 100 uM after 24 hrs MTT assay; format: toxicity, cell-based, Cricetulus griseus; conditions: chinese hamster
Rattus norvegicus [5] = assay: Antihypertensive activity in spontaneous hypertensive rat model assessed as systolic blood pressure at 80 mg/kg, po measured after 1 hr by tail cuff method (reference value: 186.1 +/- 4.6 mmHg); format: functional
Rattus norvegicus [6] = assay: Antihypertensive activity in spontaneous hypertensive rat model assessed as systolic blood pressure at 80 mg/kg, po measured after 2 hr by tail cuff method (reference value: 186.1 +/- 4.6 mmHg); format: functional
Rattus norvegicus [7] = assay: Antihypertensive activity in spontaneous hypertensive rat model assessed as systolic blood pressure at 80 mg/kg, po measured after 4 hr by tail cuff method (reference value: 186.1 +/- 4.6 mmHg); format: functional
Rattus norvegicus [8] = assay: Antihypertensive activity in spontaneous hypertensive rat model assessed as systolic blood pressure at 80 mg/kg, po measured after 6 hr by tail cuff method (reference value: 186.1 +/- 4.6 mmHg); format: functional
Rattus norvegicus [9] = assay: Antihypertensive activity in spontaneous hypertensive rat model assessed as systolic blood pressure at 80 mg/kg, po measured after 8 hr by tail cuff method (reference value: 186.1 +/- 4.6 mmHg); format: functional
Rattus norvegicus [10] = assay: Antihypertensive activity in spontaneous hypertensive rat model assessed as systolic blood pressure at 40 mg/kg, po measured after 1 hr by tail cuff method (reference value: 186.1 +/- 4.6 mmHg); format: functional
Rattus norvegicus [11] = assay: Antihypertensive activity in spontaneous hypertensive rat model assessed as systolic blood pressure at 40 mg/kg, po measured after 2 hr by tail cuff method (reference value: 186.1 +/- 4.6 mmHg); format: functional
Rattus norvegicus [12] = assay: Antihypertensive activity in spontaneous hypertensive rat model assessed as systolic blood pressure at 40 mg/kg, po measured after 4 hr by tail cuff method (reference value: 186.1 +/- 4.6 mmHg); format: functional
Rattus norvegicus [13] = assay: Antihypertensive activity in spontaneous hypertensive rat model assessed as systolic blood pressure at 40 mg/kg, po measured after 6 hr by tail cuff method (reference value: 186.1 +/- 4.6 mmHg); format: functional
Rattus norvegicus [14] = assay: Antihypertensive activity in spontaneous hypertensive rat model assessed as systolic blood pressure at 40 mg/kg, po measured after 8 hr by tail cuff method (reference value: 186.1 +/- 4.6 mmHg); format: functional

Structure (SMILES)	Activity (Aortic ring [1]) [%]	Activity (Aortic ring [2]) [%]	other results
COc1ccc2c(c1OCCCCCOc1ccc(C(N)=S)cc1)COC(C)C2=O (centres undefined)	30.2	55.4	Activity (Aortic ring [3]): Dde; Activity [4]: Active; Activity (CHO): Non-Toxic
COc1cc2c(cc1OCCCOc1ccc(C(N)=S)cc1)C(=O)C(C)OC2 (centres undefined)	45.4	61.8	Activity (Aortic ring [3]): Dde; Activity (CHO): Non-Toxic
COc1cc2c(cc1OCCCCCCCCOc1ccc(C(N)=S)cc1)C(=O)C(C)OC2 (centres undefined)	19.9	31.2	–
COc1ccc2c(c1OCCCOc1ccc(C(N)=S)cc1)COC(C)C2=O (centres undefined)	3.7	15.7	–
COc1ccc2c(c1O)COC(C)C2=O (centres undefined)	4.3	50.7	–
COc1cc2c(cc1OCCCCCOc1ccc(C(N)=S)cc1)C(=O)C(C)OC2 (centres undefined)	6.6	28.2	–
COc1ccc2c(c1OCCOc1ccc(-c3cc(=S)ss3)cc1)COC(C)C2=O (centres undefined)	5.5	18.2	–
COc1cc2c(cc1OCCCCOc1ccc(C(N)=S)cc1)C(=O)C(C)OC2 (centres undefined)	5.1	4.3	–
COc1ccc2c(c1OCCCOc1ccc(-c3cc(=S)ss3)cc1)COC(C)C2=O (centres undefined)	5.4	9.2	–
COc1cc2c(cc1O)C(=O)C(C)OC2 (centres undefined)	0.4	6.5	–
CC1OCc2c(ccc(O)c2O)C1=O (racemic)	–	–	Activity (Rattus norvegicus [5]): 170.9 mmHg; Activity (Rattus norvegicus [6]): 165.4 mmHg; Activity (Rattus norvegicus [7]): 151.5 mmHg; Activity (Rattus norvegicus [8]): 140.1 mmHg; Activity (Rattus norvegicus [9]): 150.6 mmHg
COc1ccc2c(c1OCCCCOc1ccc(C(N)=S)cc1)COC(C)C2=O (centres undefined)	2.9	35.1	–
COc1ccc2c(c1OCCCCCCOc1ccc(C(N)=S)cc1)COC(C)C2=O (centres undefined)	20	31.1	–
NC(=S)c1ccc(O)cc1	1.7	17.3	–
COc1ccc2c(c1OCCCCCCCCOc1ccc(C(N)=S)cc1)COC(C)C2=O (centres undefined)	25	56.9	Activity (Aortic ring [3]): Dde; Activity [4]: Active; Activity (CHO): Non-Toxic
[Na+].[SH-] [SODIUM HYDROSULFIDE]	18.7	52.9	–
COc1cc2c(cc1OCCCCCCCCCCCCOc1ccc(C(N)=S)cc1)C(=O)C(C)OC2 (centres undefined)	2.2	12.5	–
COc1ccccc1N1CCN(CC(O)COc2cccc3ccccc23)CC1 (centres undefined) [NAFTOPIDIL]	–	–	Activity (Rattus norvegicus [10]): 161.4 mmHg; Activity (Rattus norvegicus [11]): 148.1 mmHg; Activity (Rattus norvegicus [12]): 153.7 mmHg; Activity (Rattus norvegicus [13]): 158.2 mmHg; Activity (Rattus norvegicus [14]): 170.5 mmHg
COc1ccc2c(c1OCCOc1ccc(C(N)=S)cc1)COC(C)C2=O (centres undefined)	19.8	31.4	–
COc1cc2c(cc1OCCCCCCOc1ccc(C(N)=S)cc1)C(=O)C(C)OC2 (centres undefined)	49.6	66.7	Activity (Aortic ring [3]): Dde; Activity (Rattus norvegicus [5]): 170.2 mmHg; Activity (Rattus norvegicus [6]): 137.4 mmHg; Activity (Rattus norvegicus [7]): 142.2 mmHg; Activity (Rattus norvegicus [8]): 153.6 mmHg; Activity (Rattus norvegicus [9]): 169.4 mmHg; Activity [4]: Active; Activity (CHO): Non-Toxic
COc1ccc2c(c1OCCCCCCCCCCCCOc1ccc(C(N)=S)cc1)COC(C)C2=O (centres undefined)	12.6	25	–
